According to US11352395B2, “Anticancer peptides” (IDP DISCOVERY PHARMA, S.L., priority 2017, dated 2022):
Like-named read-outs stand apart in the source and are kept apart here. *1 amine or outer side, *2 acyl side, *3 side chain or, on linkers, in order; H or OH if unused. Where a SMILES comes first, the peptide text is derived from it. Bridges are numbered along the chain shown (N, C = ends). Where no end group is shown, it is not given here. [ ]: non-standard residue; d: D form. ξ: configuration not given here. ξαMeNle(6-ylidene) = CC(CCCC=[*:3])(N[*:1])C(=O)[*:2]; X1 = CC(CCCCCCC=[*:3])(N[*:1])C(=O)[*:2]

Columns and labels:
tumor cell lines = test: Anti-cancer activity in tumor cell lines (summary statements); assay type: cell-based
Procedure: NCI-H524 were seeded at a density of 2500 cells/well in 96 well plates; […]6, 12015, 12089 and GBM-27 were dissociated with Accumax and plate on p96 wells covered with Matrigel. After 24 h, the compounds to be tested were added to calculate the dose/response curve at the starting concentration of 100 μM with serial dilutions (1:1). Controls are the untreated cells. Each experiment was performed in triplicate. Cells were incubated during 72-96 h in incubator under CO2 atmosphere at 37° C. Cell viability was measured by means of Alamar Blue® (Biosource DAL1100) and […], after treatment with Propidium iodide and Hoechst (GE Healthcare), following manufacturer instructions. Data analysis was performed calculating the percentage of cell viability normalized vs. the values of negative control, which was considered equal to 100%. The dose/response curve was fitted through the sigmoidal equation dose-response (variable slope) and the EC50 values were calculated as follow: Y=Bottom+(Top-Bottom)/(1+10^{[(Log EC50-X)*HillSlope]}, where: X is compound concentration (log scale) and Y is the response

[1] = system: RG1, epithelial (glioblastoma, GMB)
Procedure: Alamar Blue: 10 μl Alamar Blue solution was added to each well and the plates were incubated for 4 in the incubator. Fluorescence ratio at 535/590 (excitation/emission) was measured in Cytofluor (Millipore) fluorimeter. Blank control was determined by lysis of untreated cells with con 2% of Triton X100, right before adding Alamar Blue solution.

[2] = system: 12O53, epithelial (glioblastoma, GMB); assay type: cell-based, human
Text: [drawing 12] a L birradical corresponding to -(CH2)3-CH═CH-(CH2)3- (for the case of NS02) or -(CH2)6-CH═CH-(CH2)3- (for the cases NS10, NS16 and Na05) links both Xs radicals in each sequence, and CPP2 corresponds to penetratine peptide. Cell Lines: NCI-H524, lung (small cell lung cancer, SCLC), ATCC-CRL-5831 RG1, epithelial (glioblastoma, GMB), from surgical specimens from patients GMB-27, epithelial (glioblastoma, GMB), from surgical specimens from patients 12O15, epithelial (glioblastoma, GMB), from surgical specimens from patients 12O53, epithelial (glioblastoma, GMB), from surgical specimens from patients 12O89, epithelial (glioblastoma, GMB), from surgical specimens from patients RG6, epithelial (glioblastoma, GMB), from surgical specimens from patients RG4, epithelial (glioblastoma, GMB), from surgical specimens from patients RG5, epithelial (glioblastoma, GMB), from surgical specimens from patients Cell Culture During the amplification step and the assays adherent cells were rinsed with DPBS (Dulbecco's Phosphate Buffered Saline, Sigma D1283) three times and afterward treated for 5 minutes with trypsin ([0.5 g/ml]/EDTA [0.2 g/ml]) (Gibco-BRL, 15400054) in solution of DPBS at 37° C., and, once detached, transferred in the culturing medium. No-adherent cells were dissociated with Accumax, centrifuged and transferred in the culturing medium. Cells were counted in a Neubauer chamber after labelling with Tripan-Blue. […] NCI-H524 were seeded at a density of 2500 cells/well in 96 well plates; […]6, 12015, 12089 and GBM-27 were dissociated with Accumax and plate on p96 wells covered with Matrigel. After 24 h, the compounds to be tested were added to calculate the dose/response curve at the starting concentration of 100 μM with serial dilutions (1:1). Controls are the untreated cells. Each experiment was performed in triplicate. Cells were incubated during 72-96 h in incubator under CO2 atmosphere at 37° C. Cell viability was measured by means of Alamar Blue® (Biosource DAL1100) and […], after treatment with Propidium iodide and Hoechst (GE Healthcare), following manufacturer instructions. Alamar Blue: 10 μl Alamar Blue solution was added to each well and the plates were incubated for […] in the incubator. Fluorescence ratio at 535/590 (excitation/emission) was measured in Cytofluor (Millipore) fluorimeter. Blank control was determined by lysis of untreated cells with con 2% of Triton X100, right before adding Alamar Blue solution. […] of propidium iodide and/or Hoechst solution was added to each well and the plates were incubated for 10 minutes protected by light. Control samples were represented by untreated cells and cell treated with 100% DMSO. Fluorescent stained cells which corresponds to death cells were detected by Cytell Imaging System and their amount calculated. % Viability=Number of non-blue cells×100/Number of total cells Statistics Data analysis was performed calculating the percentage of cell viability normalized vs. the values of negative control, which was considered equal to 100%. The dose/response curve was fitted through the sigmoidal equation dose-response (variable slope) and the EC50 values were calculated as follow: Y=Bottom+(Top-Bottom)/(1+10^{[(Log EC50-X)*HillSlope]}, where: X is compound concentration (log scale) and Y is the response

[3] = system: NCI-H524, lung (small cell lung cancer, SCLC)
Text: Cell Lines: NCI-H524, lung (small cell lung cancer, SCLC), ATCC-CRL-5831 RG1, epithelial (glioblastoma, GMB), from surgical specimens from patients GMB-27, epithelial (glioblastoma, GMB), from surgical specimens from patients 12O15, epithelial (glioblastoma, GMB), from surgical specimens from patients 12O53, epithelial (glioblastoma, GMB), from surgical specimens from patients 12O89, epithelial (glioblastoma, GMB), from surgical specimens from patients RG6, epithelial (glioblastoma, GMB), from surgical specimens from patients RG4, epithelial (glioblastoma, GMB), from surgical specimens from patients RG5, epithelial (glioblastoma, GMB), from surgical specimens from patients Cell Culture […]
During the amplification step and the assays adherent cells were rinsed with DPBS (Dulbecco's Phosphate Buffered Saline, Sigma D1283) three times and afterward treated for 5 minutes with trypsin ([0.5 g/ml]/EDTA [0.2 g/ml]) (Gibco-BRL, 15400054) in solution of DPBS at 37° C., and, once detached, transferred in the culturing medium. […] Cells were counted in a Neubauer chamber after labelling with Tripan-Blue. […]
Cells were incubated during 72-96 h in incubator under CO2 atmosphere at 37° C. Cell viability was measured by means of Alamar Blue® (Biosource DAL1100) and CYTELL™, after treatment with Propidium iodide and Hoechst (GE Healthcare), following manufacturer instructions. […]

[4] = system: RG5, epithelial (glioblastoma, GMB); assay type: cell-based, human
Text: (§1) [drawing 12] a L birradical corresponding to —(CH2)3—CH═CH—(CH2)3— (for the case of NS02) or —(CH2)6—CH═CH—(CH2)3— (for the cases NS10, NS16 and Na05) links both Xs radicals in each sequence, and CPP2 corresponds to penetratine peptide. Cell Lines: NCI-H524, lung (small cell lung cancer, SCLC), ATCC-CRL-5831 RG1, epithelial (glioblastoma, GMB), from surgical specimens from patients GMB-27, epithelial (glioblastoma, GMB), from surgical specimens from patients 12O15, epithelial (glioblastoma, GMB), from surgical specimens from patients 12O53, epithelial (glioblastoma, GMB), from surgical specimens from patients 12O89, epithelial (glioblastoma, GMB), from surgical specimens from patients RG6, epithelial (glioblastoma, GMB), from surgical specimens from patients RG4, epithelial (glioblastoma, GMB), from surgical specimens from patients RG5, epithelial (glioblastoma, GMB), from surgical specimens from patients Cell Culture
(§2) Cell lines NCI-H524 were cultured in incubator at 37° C. in RPMI-1640 (Sigma R8758) medium with 10% of fetal bovine serum inactivated (FBS) and 2 mM glutamine (Sigma G7513). Cell line RG1, RG4, RG5, RG6, 12015, 12089 and GBM-27 were cultured in incubator under CO2 (6%) at 37° C. in complete medium (Neurobasal+B27+Glutamax+Growth factors).
(§3) During the amplification step and the assays adherent cells were rinsed with DPBS (Dulbecco's Phosphate Buffered Saline, Sigma D1283) three times and afterward treated for 5 minutes with trypsin ([0.5 g/ml]/EDTA [0.2 g/ml]) (Gibco-BRL, 15400054) in solution of DPBS at 37° C., and, once detached, transferred in the culturing medium. No-adherent cells were dissociated with Accumax, centrifuged and transferred in the culturing medium. Cells were counted in a Neubauer chamber after labelling with Tripan-Blue.
(§4) NCI-H524 were seeded at a density of 2500 cells/well in 96 well plates; RG1, RG4, RG5, RG6, 12015, 12089 and GBM-27 were dissociated with Accumax and plate on p96 wells covered with Matrigel. After 24 h, the compounds to be tested were added to calculate the dose/response curve at the starting concentration of 100 μM with serial dilutions (1:1). Controls are the untreated cells. Each experiment was performed in triplicate.
(§5) Cells were incubated during 72-96 h in incubator under CO2 atmosphere at 37° C. Cell viability was measured by means of Alamar Blue® (Biosource DAL1100) and CYTELL™, after treatment with Propidium iodide and Hoechst (GE Healthcare), following manufacturer instructions.
(§6) Alamar Blue: 10 μl Alamar Blue solution was added to each well and the plates were incubated for […] in the incubator. Fluorescence ratio at 535/590 (excitation/emission) was measured in Cytofluor (Millipore) fluorimeter. Blank control was determined by lysis of untreated cells with con 2% of Triton X100, right before adding Alamar Blue solution.
(§7) CYTELL™: 10 μl of propidium iodide and/or Hoechst solution was added to each well and the plates were incubated for 10 minutes protected by light. Control samples were represented by untreated cells and cell treated with 100% DMSO. Fluorescent stained cells which corresponds to death cells were detected by Cytell Imaging System and their amount calculated. % Viability=Number of non-blue cells×100/Number of total cells Statistics
(§8) Data analysis was performed calculating the percentage of cell viability normalized vs. the values of negative control, which was considered equal to 100%. The dose/response curve was fitted through the sigmoidal equation dose-response (variable slope) and the EC50 values were calculated as follow: Y=Bottom+(Top−Bottom)/(1+10^{[(Log EC50−X)*HillSlope]}, where: X is compound concentration (log scale) and Y is the response

[5] = system: 12O15, epithelial (glioblastoma, GMB); assay type: cell-based, human
Text: as §1, §2, §3, §4, §5, §6, §7, §8

[6] = system: RG4, epithelial (glioblastoma, GMB); assay type: cell-based, human
Text: as §1, §2, §3, §4, §5, §6, §7, §8

[7] = system: GBM27 (GMB-27), epithelial (glioblastoma); assay type: cell-based, human
Text: as §1, §2, §3, §4, §5, §6, §7, §8

[8] = system: RG6, epithelial (glioblastoma, GMB); assay type: cell-based, human
Text: as §1, §2, §3, §4, §5, §6, §7, §8

[9] = system: 12O89, epithelial (glioblastoma, GMB); assay type: cell-based, human
Text: as §1, §2, §3, §4, §5, §6, §7, §8

| Compound | EC50 [1] | EC50 [2] | also measured |
| --- | --- | --- | --- |
| RRRRRRRAAKVVILKKATEYVHS-NH2 (C-terminus assumed) [IDP-intwtLN10, reference compound] | > 100 µM | > 100 µM | inhibiting cancer cell proliferation (in words) (tumor cell lines): inactive |
| CC(C)C[C@H](NC(=O)[C@H](Cc1ccccc1)NC(=O)C1(C)CCCC=CCCCC(C)(NC(=O)[C@H](CC(N)=O)NC(=O)[C@H](CCCNC(=N)N)NC(=O)[C@H](CCCNC(=N)N)NC(=O)[C@H](CCC(N)=O)NC(=O)[C@@H](N)CCCNC(=N)N)C(=O)N[C@@H](CC(C)C)C(=O)N[C@@H](CCCNC(=N)N)C(=O)N[C@@H](CO)C(=O)N1)C(=O)N[C@H](C(=O)N[C@@H](CC(C)C)C(=O)N[C@@H](CCCNC(=N)N)C(=O)N[C@@H](CC(=O)O)C(=O)N[C@@H](Cc1c[nH]cn1)C(N)=O)[C@@H](C)O (stereo partly shown) [IDP-NS02] (H-RQRRN[ξαMeNle(6-ylidene)]LRS[ξαMeNle(6-ylidene)]FLTLRDH-NH2; staple 6-10; N-terminus and C-terminus assumed) | > 100 µM | > 100 µM | EC50 [3]: ~5 µM |
| CC(C)C[C@@H]1NC(=O)[C@H](Cc2ccccc2)NC(=O)[C@H](CO)NC(=O)[C@H](CO)NC(=O)C(C)(NC(=O)[C@H](CC(C)C)NC(=O)[C@H](CC(=O)O)NC(=O)[C@H](CC(N)=O)NC(=O)[C@H](CCCNC(=N)N)NC(=O)[C@H](CCCNC(=N)N)NC(=O)[C@H](CCC(N)=O)NC(=O)[C@@H](N)CCCNC(=N)N)CCCCCCC=CCCCC(C)(C(=O)N[C@@H](CC(=O)O)C(=O)N[C@@H](Cc2c[nH]cn2)C(N)=O)NC(=O)[C@H](CC(C)C)NC(=O)[C@H]([C@@H](C)O)NC1=O (stereo partly shown) [IDP-NS16] (H-RQRRNDL[X1]SSFLTL[ξαMeNle(6-ylidene)]DH-NH2; staple 8-15; N-terminus and C-terminus assumed) | ~15 µM | ~10 µM |  |
| RQIKIWFQNRRMKWKKRQRRNDLRSSFLTLRDHVP-NH2 [NLCa02] |  |  | anti-cancer activity (in words) (tumor cell lines; tumor cell lines): anti-cancer activity; EC50 ([1]; RG1 cell line, 72-96 h incubation): ~5 µM |
| AAKVVILKKATEYVHS-NH2 (C-terminus assumed) [IDP-wtLN10, reference compound] | > 100 µM | > 100 µM | inhibiting cancer cell proliferation (in words) (tumor cell lines): not effective |
| CC(C)C[C@H](NC(=O)[C@H](CC(=O)O)NC(=O)[C@H](CC(N)=O)NC(=O)[C@H](CCCNC(=N)N)NC(=O)[C@@H](N)CCCNC(=N)N)C(=O)N[C@@H](CCCNC(=N)N)C(=O)N[C@@H](CO)C(=O)NC1(C)CCCCCCC=CCCCC(C)(C(=O)N[C@H](C(=O)N2CCC[C@H]2C(N)=O)C(C)C)NC(=O)[C@H](CC(=O)O)NC(=O)[C@H](CCCNC(=N)N)NC(=O)[C@H](CC(C)C)NC(=O)[C@H]([C@@H](C)O)NC(=O)[C@H](CC(C)C)NC(=O)[C@H](Cc2ccccc2)NC1=O (stereo partly shown) [Na05] (H-RRNDLRS[X1]FLTLRD[ξαMeNle(6-ylidene)]VP-NH2; staple 8-15; N-terminus and C-terminus assumed) | ~10 µM |  |  |
| CC[C@H](C)[C@@H]1NC(=O)[C@H](C(C)C)NC(=O)[C@H](C(C)C)NC(=O)C(C)(NC(=O)[C@H](C)NC(=O)[C@H](C)N)CCCCCCC=CCCCC(C)(C(=O)N[C@H](C(=O)N[C@@H](CCC(=O)O)C(=O)N[C@@H](Cc2ccc(O)cc2)C(=O)N[C@H](C(=O)N[C@@H](Cc2c[nH]cn2)C(=O)N[C@@H](CO)C(N)=O)C(C)C)[C@@H](C)O)NC(=O)[C@H](CCCCN)NC(=O)[C@H](CCCCN)NC(=O)[C@H](CC(C)C)NC1=O (stereo partly shown) [IDP-NS10] (H-AA[X1]VVILKK[ξαMeNle(6-ylidene)]TEYVHS-NH2; staple 3-10; N-terminus and C-terminus assumed) | ~7 µM | ~50 µM | EC50 [4]: ~7 µM; EC50 [5]: ~10 µM; EC50 [6]: ~5 µM; EC50 [7]: ~7.5 µM; EC50 [8]: ~5 µM; EC50 [9]: ~4 µM |
